≈ marks a conversion by molar mass, not a printed value. Read-outs that look alike come from different tables or passages of the source.
How the values were obtained:
S. aureus Smith = test: Median curative dose in mice, infection with S. aureus Smith; type: in vivo; details: Staphylococcus aureus, sc; subcutaneous injection in mice, S. aureus Smith, Table 4; read-out: Median Curative Dose (PD50)
Source text: (§1) Median Curative Dose in Mgm./Kg.
(§2) Upon Subcutaneous Injection in Mice

Ps. aeruginosa A9843 = test: Median curative dose in mice, infection with Ps. aeruginosa; type: in vivo; details: for ED50: Pseudomonas aeruginosa, A9843, sc
Source text: as §1, §2

S. marcescens = test: MIC by serial two-fold agar dilution (Mueller-Hinton agar), S. marcescens; type: cell-based
Protocol: (§3) Minimum inhibitory concentrations (MIC) of BB-S520 were determined by serial two-fold agar dilution method using Steers' apparatus on Meuller-Hinton agar plate against 31 test organisms for the primary screening and also against 61 strains of Pseudomonas aeruginosa for the secondary evaluation. The results are shown in Table 1 and Table 2 along with those of BB-S514 and sulbenicillin.
(§4) Minimum inhibitory concentrations (MIC) of cephalosporins in the present study were determined by serial two-fold agar dilution method using Steers' apparatus on Mueller-Hinton agar plate against 31 test organisms for the primary screening and also against 61 strains of Pseudomonas aeruginosa for the secondary evaluation.

E. coli Juhl = test: Median curative dose in mice, infection with E. coli Juhl; type: in vivo; details: Escherichia coli, sc
Source text: as §1, §2

Klebsiella sp. = test: MIC by serial two-fold agar dilution (Mueller-Hinton agar), Klebsiella sp.; type: cell-based
Protocol: as §3, §4

K. pneumoniae = test: MIC by serial two-fold agar dilution (Mueller-Hinton agar), K. pneumoniae; type: cell-based; details: Klebsiella pneumoniae
Protocol: as §3, §4

P. aeruginosa = test: MIC by serial two-fold agar dilution (Mueller-Hinton agar), P. aeruginosa, primary screening; type: cell-based
Protocol: as §3, §4

P. morganii = test: MIC by serial two-fold agar dilution (Mueller-Hinton agar), P. morganii; type: cell-based
Protocol: as §3, §4

S. aureus = test: MIC by serial two-fold agar dilution (Mueller-Hinton agar), S. aureus; type: cell-based; details: Staphylococcus aureus
Protocol: as §3, §4

P. vulgaris = test: MIC by serial two-fold agar dilution (Mueller-Hinton agar), P. vulgaris; type: cell-based
Protocol: as §3, §4

Pseudomonas (6 strains) = test: Mean % relative activity (MIC) vs sulbenicillin, Pseudomonas (6 strains); type: cell-based; details: for Mean % Relative Activity (SPBC = 100%): P. aerug. (6 strains)
Protocol: as §3, §4

E. coli = test: MIC by serial two-fold agar dilution (Mueller-Hinton agar), E. coli; type: cell-based; details: Escherichia coli
Protocol: as §3, §4

[1] = mice, P. aerug. A9843 infection, Table 5, read-out: PD50
[2] = subcutaneous injection in mice, Ps. aeruginosa, Table 4, read-out: Median Curative Dose (PD50)
[3] = Serratia marcescens, S. marcescens, Table 1, read-out: MIC
[4] = subcutaneous injection in mice, E. coli Juhl, Table 4, read-out: Median Curative Dose (PD50)
[5] = Pseudomonas aeruginosa, P. aeruginosa (2nd line), Table 1, read-out: MIC
[6] = Pseudomonas aeruginosa, P. aeruginosa (3rd line), Table 1, read-out: MIC
[7] = Pseudomonas aeruginosa, P. aeruginosa (4th line), Table 1, read-out: MIC
[8] = Pseudomonas aeruginosa, P. aeruginosa (6th line), Table 1, read-out: MIC
[9] = Morganella morganii, P. morganii, Table 1, read-out: MIC
[10] = S. aureus BX-1633, Table 1, read-out: MIC
[11] = S. aureus Smith (1st line), Table 1, read-out: MIC
[12] = S. aureus Smith (2nd line), Table 1, read-out: MIC
[13] = S. aureus, unnamed strain (4th S. aureus line), Table 1, read-out: MIC
[14] = S. aureus, unnamed strain (5th S. aureus line), Table 1, read-out: MIC
[15] = S. aureus, unnamed strain (6th S. aureus line), Table 1, read-out: MIC
[16] = Proteus vulgaris, P. vulgaris, Table 1, read-out: MIC
[17] = E. coli Juhl, Table 1, read-out: MIC
[18] = E. coli NIHJ, Table 1, read-out: MIC
[19] = E. coli, unnamed strain (4th E. coli line), Table 1, read-out: MIC
[20] = E. coli, unnamed strain (5th E. coli line), Table 1, read-out: MIC
[21] = E. coli, unnamed strain (6th E. coli line), Table 1, read-out: MIC
[22] = E. coli, unnamed strain (7th E. coli line), Table 1, read-out: MIC
[23] = E. coli, unnamed strain (8th E. coli line), Table 1, read-out: MIC
[24] = E. coli, unnamed strain (9th E. coli line), Table 1, read-out: MIC

Structure (SMILES): NC(=O)OCC1=C(C(=O)O)N2C(=O)C(NC(=O)[C@H](NC(=O)c3cnc4cccnc4c3O)c3ccccc3)[C@H]2SC1 (stereo partly drawn) [BB-S520, Sodium 7-[D-α-(4-hydroxy-1,5-naphthyridine-3-carboxamido)-α-phenylacetamido]-3-carbamoyloxymethyl-3-cephem-4-carboxylate]
- ED50 (S. aureus Smith): 0.8 mg/kg
- ED50 (Ps. aeruginosa A9843; [1]): 37 mg/kg
- ED50 (Ps. aeruginosa A9843; [2]): 37 mg/kg
- MIC (S. marcescens; [3]): > 100 µg/mL
- ED50 (E. coli Juhl; [4]): 1.8 mg/kg
- MIC (Klebsiella sp.; Klebsiella sp., Table 1, read-out: MIC): 3.1 µg/mL
- MIC (K. pneumoniae; K. pneumoniae, Table 1): 1.6 µg/mL
- MIC (P. aeruginosa; Pseudomonas aeruginosa, P. aeruginosa (1st line), Table 1, read-out: MIC): 1.6 µg/mL
- MIC (P. aeruginosa; [5]): 3.1 µg/mL
- MIC (P. aeruginosa; [6]): 3.1 µg/mL
- MIC (P. aeruginosa; [7]): 12.5 µg/mL
- MIC (P. aeruginosa; Pseudomonas aeruginosa, P. aeruginosa (5th line), Table 1, read-out: MIC): 1.6 µg/mL
- MIC (P. aeruginosa; [8]): 1.6 µg/mL
- MIC (P. morganii; [9]): > 100 µg/mL
- MIC (S. aureus; [10]): 0.8 µg/mL
- MIC (S. aureus; [11]): 0.8 µg/mL
- MIC (S. aureus; [12]): 1.6 µg/mL
- MIC (S. aureus; [13]): 25 µg/mL
- MIC (S. aureus; [14]): 1.6 µg/mL
- MIC (S. aureus; [15]): 50 µg/mL
- MIC (P. vulgaris; [16]): 100 µg/mL
- Mean % Relative Activity (SPBC = 100%) (Pseudomonas (6 strains); lot 1, Table 5): 635%
- Mean % Relative Activity (SPBC = 100%) (Pseudomonas (6 strains); lot 2, Table 5): 712%
- Mean % Relative Activity (Sulbenicillin = 100%) (Pseudomonas (6 strains); Pseudomonas (6 strains), from geometric means of MICs in Table 1): 635%
- MIC (E. coli; [17]): 1.6 µg/mL
- MIC (E. coli; [18]): 0.05 µg/mL
- MIC (E. coli; [19]): 0.8 µg/mL
- MIC (E. coli; [20]): 100 µg/mL
- MIC (E. coli; [21]): 3.1 µg/mL
- MIC (E. coli; [22]): 100 µg/mL
- MIC (E. coli; [23]): 3.1 µg/mL
- MIC (E. coli; [24]): 0.4 µg/mL

Structure (SMILES): CC1(C)S[C@@H]2[C@H](NC(=O)C(c3ccccc3)S(=O)(=O)O)C(=O)N2[C@H]1C(=O)O (some centres unmarked) [Sulbenicillin, sulbenicillin]
- ED50 (S. aureus Smith): 2.4 mg/kg
- ED50 (Ps. aeruginosa A9843; [1]): 140 mg/kg
- ED50 (Ps. aeruginosa A9843; [2]): 85 mg/kg
- PD50 (Ps. aeruginosa A9843; mice, P. aerug. A9843 infection, Table 5): 130 mg/kg
- MIC (S. marcescens; S. marcescens A20019, Table 6): 6.3 µg/mL (≈ 15.2 µM)
- MIC (S. marcescens; [3]): 6.3 µg/mL (≈ 15.2 µM)
- ED50 (E. coli Juhl; mice, E. coli Juhl infection, Table 5, read-out: PD50): 8.5 mg/kg
- ED50 (E. coli Juhl; [4]): 9.5 mg/kg
- MIC (Klebsiella sp.; Klebsiella): 12.5 µg/mL (≈ 30.2 µM)
- MIC (Klebsiella sp.; Klebsiella sp. A20452, Table 6): 12.5 µg/mL (≈ 30.2 µM)
- MIC (K. pneumoniae; K. pneumoniae A9977, Table 6): 3.1 µg/mL (≈ 7.48 µM)
- MIC (K. pneumoniae; K. pneumoniae, Table 1): 6.3 µg/mL (≈ 15.2 µM)
- MIC (P. aeruginosa; P. aeruginosa (5th line), Table 1): 12.5 Mcg./Ml.
- MIC (P. aeruginosa; P. aeruginosa A15150, Table 6): 12.5 µg/mL (≈ 30.2 µM)
- MIC (P. aeruginosa; P. aeruginosa A20229, Table 6): 12.5 µg/mL (≈ 30.2 µM)
- MIC (P. aeruginosa; Pseudomonas aeruginosa): 12.5 µg/mL (≈ 30.2 µM)
- MIC (P. aeruginosa; [5]): 25 µg/mL (≈ 60.3 µM)
- MIC (P. aeruginosa; [6]): 25 µg/mL (≈ 60.3 µM)
- MIC (P. aeruginosa; [7]): 100 µg/mL (≈ 241 µM)
- MIC (P. aeruginosa; [8]): 3.1 µg/mL (≈ 7.48 µM)
- MIC (P. aeruginosa; Pseudomonas aeruginosa, P. aeruginosa A9843, Table 6, read-out: MIC): 25 µg/mL (≈ 60.3 µM)
- MIC (P. aeruginosa; Pseudomonas aeruginosa, P. aeruginosa A9930, Table 6, read-out: MIC): 25 µg/mL (≈ 60.3 µM)
- MIC (P. aeruginosa; Pseudomonas aeruginosa, P. aeruginosa A20717, Table 6, read-out: MIC): 100 µg/mL (≈ 241 µM)
- MIC (P. morganii; [9]): > 100 µg/mL
- MIC (P. morganii; P. morganii A9553, Table 6): > 100 µg/mL
- MIC (S. aureus; [10]): 3.1 µg/mL (≈ 7.48 µM)
- MIC (S. aureus; S. aureus BX-1633 A9606, Table 6, read-out: MIC): 3.1 µg/mL (≈ 7.48 µM)
- MIC (S. aureus; [11]): 1.6 µg/mL (≈ 3.86 µM)
- MIC (S. aureus; [12]): 6.3 µg/mL (≈ 15.2 µM)
- MIC (S. aureus; S. aureus Smith A9537, Table 6, read-out: MIC): 3.1 µg/mL (≈ 7.48 µM)
- MIC (S. aureus; S. aureus Smith A15907, Table 6): 12.5 µg/mL (≈ 30.2 µM)
- MIC (S. aureus; S. aureus Smith A20239, Table 6, read-out: MIC): 6.3 µg/mL (≈ 15.2 µM)
- MIC (S. aureus; S. aureus Smith A20240, Table 6, read-out: MIC): 6.3 µg/mL (≈ 15.2 µM)
- MIC (S. aureus; S. aureus Smith A20701, Table 6, read-out: MIC): 50 µg/mL (≈ 121 µM)
- MIC (S. aureus; [13]): 25 µg/mL (≈ 60.3 µM)
- MIC (S. aureus; [14]): 3.1 µg/mL (≈ 7.48 µM)
- MIC (S. aureus; [15]): 50 µg/mL (≈ 121 µM)
- MIC (P. vulgaris; P. vulgaris A9539, Table 6): 3.1 µg/mL (≈ 7.48 µM)
- MIC (P. vulgaris; [16]): 3.1 µg/mL (≈ 7.48 µM)
- MIC (E. coli; E. coli A9435, Table 6, read-out: MIC): 12.5 µg/mL (≈ 30.2 µM)
- MIC (E. coli; E. coli A9844, Table 6, read-out: MIC): 0.8 µg/mL (≈ 1.93 µM)
- MIC (E. coli; E. coli A10664, Table 6, read-out: MIC): 1.6 µg/mL (≈ 3.86 µM)
- MIC (E. coli; E. coli A20366, Table 6, read-out: MIC): > 100 µg/mL
- MIC (E. coli; E. coli A20520, Table 6, read-out: MIC): 6.3 µg/mL (≈ 15.2 µM)
- MIC (E. coli; E. coli A20732, Table 6, read-out: MIC): 100 µg/mL (≈ 241 µM)
- MIC (E. coli; E. coli A20898, Table 6, read-out: MIC): > 100 µg/mL
- MIC (E. coli; E. coli Juhl A15119, Table 6, read-out: MIC): 3.1 µg/mL (≈ 7.48 µM)
- MIC (E. coli; [17]): 1.6 µg/mL (≈ 3.86 µM)
- MIC (E. coli; [18]): 0.8 µg/mL (≈ 1.93 µM)
- MIC (E. coli; E. coli NIHJ, Table 6, read-out: MIC): 0.8 µg/mL (≈ 1.93 µM)
- MIC (E. coli; E. coli, unnamed strain (3rd E. coli line), Table 1): 0.8 µg/mL (≈ 1.93 µM)
- MIC (E. coli; [19]): 1.6 µg/mL (≈ 3.86 µM)
- MIC (E. coli; [20]): > 100 µg/mL
- MIC (E. coli; [21]): 6.3 µg/mL (≈ 15.2 µM)
- MIC (E. coli; [22]): > 100 µg/mL
- MIC (E. coli; [23]): > 100 µg/mL
- MIC (E. coli; [24]): 6.3 µg/mL (≈ 15.2 µM)
